From patent US10117845B2, “Retinal derivatives and methods for the use thereof for the treatment of visual disorders” (University of Washington, priority 2004, dated 2018)

What was measured:
Lrat−/− mice [1] = assay: 9-cis-RAL oxime levels in eyes of Lrat−/− mice after single or multiple oral doses (Example 3); type: in vivo, mouse
Procedure: Levels of 9-cis-RAL oximes (measured as syn- and anti-9-cis-retinyl aldehyde) in the eyes of Lrat−/− mice after a single dose or multiple doses of 9-cis-retinyl-acetate (9-cis-R-Ac). Doses of 9-cis-R-Ac were administered to Lrat−/− mice by oral gavage in vegetable oil (100% canola oil) in a volume of 500 ill (2.5 mg/ml). The mice weighed about 30-50 g. After 3 days, 9-cis-RAL oximes levels were determined by HPLC. Briefly, all experimental procedures related to extraction, derivatization, and separation of retinoids from dissected mouse eyes were carried out as described previously. See Van Hooser et al., J. Biol. Chem. 277:19173-182 (2002); Van Hooser et al., Proc. Natl. Acad. Sci. USA 97:8623-28 (2000); Maeda et al., J. Neurochem. 85:944-56 (2003). All reactions involving retinoids were carried out under dim red light.
Referring to FIG. 5a, the level of 9-cis-RAL in Lrat−/− in mouse eyes after a varying dose of 9-cis-R-Ac is shown. Peaks were identified by retention time and UV spectra and compared to standards. The spike around 19 min resulted from changes in the solvent composition. Retinoid analysis was performed on an HP1100 HPLC equipped with a diode array detector and HP Chemstation (A.07.01) software, allowing identification of retinoid isomers according to their specific retention time and absorption maxima. […]

Lrat−/− mice [2] = assay: Bioavailability comparison of oral 9-cis-retinaldehyde and 9-cis-retinyl acetate, by chromophore levels in LRAT−/− mice (Example 5); type: in vivo, mouse; settings: low (10 μmoles) and high (15 μmoles) doses, effect more pronounced at low dose, FIG. 7
Procedure: A comparison of the bioavailability of orally delivered 9-cis-retinaldehyde and 9-cis-retinyl acetate in an LRAT−/− model. 9-cis-retinaldehyde and 9-cis-retinyl acetate were administered at low (10 μmoles) and high (15 μmoles) doses to LRAT−/− mice. Chromophore levels (as 9-cis-retinal oximes) were determined as described previously. See Van Hooser et at, J. Biol. Chem. 277:19173-182 (2002); Van Hooser et al., Proc. Natl. Acad. Sci. USA 97:8623-28 (2000); Maeda et al., J. Neurochem. 85:944-56 (2003). All reactions involving retinoids were carried out under dim red light.

[3] = test system: LRAT−/− mice (LCA mouse model); assay: Retinoids in eyes of gavaged LRAT−/− mice, analyzed by HPLC (Example 1); type: in vivo
Procedure: […]. HPLC chromatogram showing retinoid elution in treated and control mice eye and liver tissue. FIG. 1A. Eyes from dark adapted LRAT−/− mouse. FIG. 1B. Eyes from dark-adapted LRAT−/− mouse gavaged with 5 mg all-trans-retinyl palmitate 2 days prior. FIG. 1C. Eyes from dark-adapted LRAT−/− mouse gavaged with 5 mg all-trans-retinyl acetate 2 days prior. FIG. 1D. Eyes from dark-adapted LRAT−/− mouse gavaged with 6.5 mg 9-cis-retinyl acetate 3 days prior. FIG. 1E. Liver tissue from dark adapted LRAT−/− mouse. FIG. 1F. Liver tissue from dark-adapted LRAT−/− mouse gavaged with 5 mg all-trans-retinyl palmitate 2 days prior. FIG. 1G. Liver tissue from dark-adapted LRAT−/− mouse gavaged with 5 mg all-trans-retinyl acetate 2 days prior. FIG. 1H. Liver tissue from dark-adapted LRAT−/− mouse gavaged with 6.5 mg 9-cis-retinyl acetate 3 days prior.
9-cis-retinyl ester restores visual pigment in an LCA mouse model. LRAT−/− mice were gavaged with all-trans-retinyl palmitate, all-trans-retinyl acetate or 9-cis-retinyl acetate as indicated in the legend to FIG. 1A-1H. Following treatment, retinoids were extracted from the eye and liver, and analyzed by HPLC. […] 9-cis-retinyl ester restores visual pigment in approximately 5 hr (FIG. 2), while excess of retinoid is removed and metabolized (as illustrated for 9-cis-retinol).

Lrat−/− mice [4] = assay: Chromophore levels in eyes of Lrat−/− mice after all-trans-retinoid isoforms or 9-cis-retinyl succinate (Example 4); type: in vivo, mouse; settings: 5 mg by oral gavage in canola oil (40 mg/ml), measured after 3 days; FIG. 6
Procedure: Levels of chromophore (opsin/retinal complexes) were measured in the eyes of mice after dosing with all-trans-retinoid isoforms or 9-cis-retinyl succinate. All-trans-retinyl-palmitate, all-trans-retinyl acetate, all-trans-retinal (vitamin A aldehyde), all-trans-retinol (vitamin A), all-trans-retinyl succinate and 9-cis-retinyl succinate were administered to Lrat−/− mice by oral gavage. Five milligrams of the retinoid isoforms or 9-cis-retinyl succinate were administered in 100% canola oil at a concentration of 40 mg/ml. After 3 days, chromophore levels (as all-trans-retinal oximes or 9-cis-retinal oximes) were determined as described previously. See Van Hooser et al., J. Biol. Chem. 277:19173-182 (2002); Van Hooser et al, Proc. Natl. Acad. Sci. USA 97:8623-28 (2000); Maeda et al., J. Neurochem. 85:944-56 (2003). All reactions involving retinoids were carried out under dim red light.

Compound	maximal level of isorhodopsin (as 9-cis-retinal oximes) (Lrat−/− mice [1]; Lrat−/− mouse eyes after 10 gavages, FIG. 5b)	dose at which levels of 9-cis-RAL per eye leveled off (Lrat−/− mice [1]; single varying dose by oral gavage in canola oil, measured after 3 days, FIG. 5a) [µmol]	restoration of chromophore levels (as 9-cis-retinal oximes), compared with 9-cis-retinaldehyde (Lrat−/− mice [2])	presence of syn-9-cis-retinal oxime in eyes (formation of the chromophore) ([3]; dark-adapted LRAT−/− mouse gavaged with 6.5 mg 3 days prior, FIG. 1D)	time in which visual pigment is restored ([3]; eye 9-cis-retinal oximes time course, FIG. 2)	restoration of chromophore levels (as all-trans-retinal oximes or 9-cis-retinal oximes) (Lrat−/− mice [4])
CC(=O)OC/C=C(C)/C=C/C=C(C)\C=C\C1=C(C)CCCC1(C)C [9-cis-retinyl acetate]	comparable to the level of rhodopsin in wildtype (WT) mice	4 to 6	more efficiently restores chromophore levels than 9-cis-retinaldehyde	restored the presence of syn-9-cis-retinal oxime	approximately 5 hr	
CC1=C(/C=C/C(C)=C\C=C\C(C)=C\COC(=O)CCC(=O)O)C(C)(C)CCC1 [9-cis-retinyl succinate]						restored chromophore levels
